Measurements from US6982348B2, “Aminoethanol derivatives” (Takeda Pharmaceutical Company Limited, priority 2001, dated 2006).

Row | Compound | melting point
1 | CC(C)(C)OC(=O)N[C@H](Cc1cccc(OC(F)(F)C(F)F)c1)[C@@H](O)c1ccc(F)cc1 (racemic) [Example 130, tert-butyl N-[(1RS,2SR)-2-(4-fluorophenyl)-2-hydroxy-1-[3-(1,1,2,2-tetrafluoroethoxy)benzyl]ethyl]carbamate] | 145 to 146 °C
2 | O=C(N[C@H](Cc1ccc(OC(F)(F)C(F)F)cc1)[C@@H](O)c1ccc(F)cc1)c1ccc(F)c2ccccc12 (racemic) [Example 131, 4-fluoro-N-[(1RS,2SR)-2-(4-fluorophenyl)-2-hydroxy-1-[4-(1,1,2,2-tetrafluoroethoxy)benzyl]ethyl]naphthalene-1-carboxamide] | 192 to 193 °C
3 | O=C(N[C@H](Cc1ccc(OC(F)(F)F)cc1)[C@@H](O)c1ccc(F)cc1)c1ccc(F)c2ccccc12 (racemic) [Example 134, 4-fluoro-N-[(1RS,2SR)-2-(4-fluorophenyl)-2-hydroxy-1-[4-(trifluoromethoxy)benzyl]ethyl]naphthalene-1-carboxamide] | 230 to 231 °C
4 | O=C(N[C@H](Cc1ccc(OC(F)(F)F)cc1)[C@@H](O)c1ccc(F)cc1)c1cccc2c1C=CCCC2 (racemic) [Example 135, N-[(1RS,2SR)-2-(4-fluorophenyl)-2-hydroxy-1-[4-(trifluoromethoxy)benzyl]ethyl]-6,7-dihydro-5H-benzo[a]cycloheptene-1-carboxamide] | 202 to 203 °C
5 | O=C(N[C@H](Cc1cccc(C(F)(F)F)c1)[C@@H](O)c1ccc(F)cc1)c1cccc2ccccc12 (racemic) [Example 136, N-((1RS,2SR)-2-(4-fluorophenyl)-2-hydroxy-1-((3-(trifluoromethyl)phenyl)methyl)ethyl)-1-naphthalenecarboxamide] | 158 to 159 °C
6 | O=C(N[C@H](Cc1cccc(C(F)(F)F)c1)[C@@H](O)c1ccc(F)cc1)C1CCCCC1 (racemic) [Example 138, N-((1RS,2SR)-2-(4-fluorophenyl)-2-hydroxy-1-((3-(trifluoromethyl)phenyl)methyl)ethyl)cyclohexanecarboxamide] | 190 to 191 °C
7 | O=C(CCCc1ccccc1)N[C@H](Cc1cccc(C(F)(F)F)c1)[C@@H](O)c1ccc(F)cc1 (racemic) [Example 139, N-((1RS,2SR)-2-(4-fluorophenyl)-2-hydroxy-1-((3-(trifluoromethyl)phenyl)methyl)ethyl)-4-phenylbutyramide] | 110 to 111 °C
8 | O=C(N[C@H](Cc1ccccc1C(F)(F)F)[C@@H](O)c1ccc(F)cc1)c1cccc2ccccc12 (racemic) [Example 140, N-((1RS,2SR)-2-(4-fluorophenyl)-2-hydroxy-1-((2-(trifluoromethyl)phenyl)methyl)ethyl)-1-naphthalenecarboxamide] | 193 to 194 °C
9 | O=C(N[C@H](Cc1ccccc1C(F)(F)F)[C@@H](O)c1ccc(F)cc1)c1ccc(F)c2ccccc12 (racemic) [Example 141, 4-fluoro-N-((1RS,2SR)-2-(4-fluorophenyl)-2-hydroxy-1-((2-(trifluoromethyl)phenyl)methyl)ethyl)-1-naphthalenecarboxamide] | 200 to 201 °C
10 | O=C(N[C@H](Cc1ccc(F)cc1)[C@@H](O)c1ccc(F)cc1)c1cccc2ccccc12 (racemic) [Example 144, N-((1RS,2SR)-2-(4-fluorophenyl)-1-((4-fluorophenyl)methyl)-2-hydroxyethyl)-1-naphthalenecarboxamide] | 199 to 200 °C
11 | COc1ccc(C[C@@H](NC(=O)c2ccc(F)c3ccccc23)[C@@H](O)c2ccc(F)cc2)cc1 (racemic) [Example 149, 4-fluoro-N-((1RS,2SR)-2-(4-fluorophenyl)-2-hydroxy-1-((4-(methyloxy)phenyl)methyl)ethyl)-1-naphthalenecarboxamide] | 210 to 211 °C
12 | COc1ccc(C[C@@H](NC(=O)C2CCCCC2)[C@@H](O)c2ccc(F)cc2)cc1 (racemic) [Example 150, N-((1RS,2SR)-2-(4-fluorophenyl)-2-hydroxy-1-((4-(methyloxy)phenyl)methyl)ethyl)cyclohexanecarboxamide] | 193 to 194 °C
13 | CC(C)(C)OC(=O)N[C@H](Cc1ccc(C#N)cc1)[C@@H](O)c1ccc(F)cc1 (racemic) [Example 152, tert-butyl N-[(1RS,2SR)-1-(4-cyanobenzyl)-2-(4-fluorophenyl)-2-hydroxyethyl]carbamate] | 203 to 204 °C
14 | N#Cc1ccc(C[C@@H](NC(=O)c2ccc(F)c3ccccc23)[C@@H](O)c2ccc(F)cc2)cc1 (racemic) [Example 153, N-[(1RS,2SR)-1-(4-cyanobenzyl)-2-(4-fluorophenyl)-2-hydroxyethyl]-4-fluoronaphthalene-1-carboxamide] | 248 to 249 °C
15 | O=C(N[C@H](Cc1ccc(C(F)(F)F)c(F)c1)[C@@H](O)c1ccc(F)cc1)c1ccc(F)c2ccccc12 (racemic) [Example 156, N-((1RS,2SR)-2-(4-fluorophenyl)-1-((3-fluoro-4-(trifluoromethyl)phenyl)methyl)-2-hydroxyethyl)-4-fluoro-1-naphthalenecarboxamide] | 212 to 213 °C
16 | O=C(N[C@H](Cc1cccc(Oc2ccccc2)c1)[C@@H](O)c1ccc(F)cc1)c1ccc(F)c2ccccc12 (racemic) [Example 160, 4-fluoro-N-((1RS,2SR)-2-(4-fluorophenyl)-2-hydroxy-1-((3-(phenyloxy)phenyl)methyl)ethyl)-1-naphthalenecarboxamide] | 120 to 121 °C
17 | O=C(N[C@H](Cc1ccc(C(F)F)cc1)[C@@H](O)c1ccc(F)cc1)c1ccc(F)c2ccccc12 (racemic) [Example 165, N-[(1RS,2SR)-1-[4-(difluoromethyl)benzyl]-2-(4-fluorophenyl)-2-hydroxyethyl]-4-fluoronaphthalene-1-carboxamide] | 212 to 213 °C

The next lines start with the values.

Row | melting point | Compound
18 | 189 to 190 °C | O=C(N[C@H](Cc1cccc(OC(F)(F)F)c1)[C@@H](O)c1ccc(F)cc1)c1ccc(F)c2ccccc12 (racemic) [Example 132, 4-fluoro-N-[(1RS,2SR)-2-(4-fluorophenyl)-2-hydroxy-1-[3-(trifluoromethoxy)benzyl]ethyl]naphthalene-1-carboxamide]
19 | 177 to 178 °C | O=C(N[C@H](Cc1cccc(OC(F)(F)F)c1)[C@@H](O)c1ccc(F)cc1)c1cccc2c1C=CCCC2 (racemic) [Example 133, N-[(1RS,2SR)-2-(4-fluorophenyl)-2-hydroxy-1-[3-(trifluoromethoxy)benzyl]ethyl]-6,7-dihydro-5H-benzo[a]cycloheptene-1-carboxamide]
20 | 193 to 194 °C | O=C(N[C@H](Cc1cccc(C(F)(F)F)c1)[C@@H](O)c1ccc(F)cc1)c1ccc(F)c2ccccc12 (racemic) [Example 137, 4-fluoro-N-((1RS,2SR)-2-(4-fluorophenyl)-2-hydroxy-1-((3-(trifluoromethyl)phenyl)methyl)ethyl)-1-naphthalenecarboxamide]
21 | 216 to 217 °C | O=C(N[C@H](Cc1ccccc1C(F)(F)F)[C@@H](O)c1ccc(F)cc1)C1CCCCC1 (racemic) [Example 142, N-((1RS,2SR)-2-(4-fluorophenyl)-2-hydroxy-1-((2-(trifluoromethyl)phenyl)methyl)ethyl)cyclohexanecarboxamide]
22 | 161 to 162 °C | O=C(CCCc1ccccc1)N[C@H](Cc1ccccc1C(F)(F)F)[C@@H](O)c1ccc(F)cc1 (racemic) [Example 143, N-((1RS,2SR)-2-(4-fluorophenyl)-2-hydroxy-1-((2-(trifluoromethyl)phenyl)methyl)ethyl)-4-phenylbutyramide]
23 | 203 to 204 °C | O=C(N[C@H](Cc1ccc(F)cc1)[C@@H](O)c1ccc(F)cc1)C1CCCCC1 (racemic) [Example 146, N-((1RS,2SR)-2-(4-fluorophenyl)-1-((4-fluorophenyl)methyl)-2-hydroxyethyl)cyclohexanecarboxamide]
24 | 147 to 148 °C | O=C(CCCc1ccccc1)N[C@H](Cc1ccc(F)cc1)[C@@H](O)c1ccc(F)cc1 (racemic) [Example 147, N-((1RS,2SR)-2-(4-fluorophenyl)-1-((4-fluorophenyl)methyl)-2-hydroxyethyl)-4-phenylbutyramide]
25 | 198 to 199 °C | COc1ccc(C[C@@H](NC(=O)c2cccc3ccccc23)[C@@H](O)c2ccc(F)cc2)cc1 (racemic) [Example 148, N-((1RS,2SR)-2-(4-fluorophenyl)-2-hydroxy-1-((4-(methyloxy)phenyl)methyl)ethyl)-1-naphthalenecarboxamide]
26 | 130 to 131 °C | COc1ccc(C[C@@H](NC(=O)CCCc2ccccc2)[C@@H](O)c2ccc(F)cc2)cc1 (racemic) [Example 151, N-((1RS,2SR)-2-(4-fluorophenyl)-2-hydroxy-1-((4-(methyloxy)phenyl)methyl)ethyl)-4-phenylbutyramide]
27 | 189 to 192 °C | CC(C)c1ccc(C[C@@H](NC(=O)c2ccc(F)c3ccccc23)[C@@H](O)c2ccc(F)cc2)cc1 (racemic) [Example 154, 4-fluoro-N-[(1RS,2SR)-2-(4-fluorophenyl)-2-hydroxy-1-(4-isopropylbenzyl)ethyl]naphthalene-1-carboxamide]
28 | 126 to 127 °C | O=C(CCc1ccccc1)N[C@H](Cc1ccc(C(F)(F)F)c(F)c1)[C@@H](O)c1ccc(F)cc1 (racemic) [Example 157, N-((1RS,2SR)-2-(4-fluorophenyl)-1-((3-fluoro-4-(trifluoromethyl)phenyl)methyl)-2-hydroxyethyl)-3-phenylpropanamide]
29 | 220 to 221 °C | CC(F)(F)c1ccc(C[C@@H](NC(=O)c2ccc(F)c3ccccc23)[C@@H](O)c2ccc(F)cc2)cc1 (racemic) [Example 166, N-[(1RS,2SR)-1-[4-(1,1-difluoroethyl)benzyl]-2-(4-fluorophenyl)-2-hydroxyethyl]-4-fluoronaphthalene-1-carboxamide]
30 | 219 to 220 °C | O=C(N[C@H](Cc1ccc2c(c1)OC(F)(F)O2)[C@@H](O)c1ccc(F)cc1)c1ccc(F)c2ccccc12 (racemic) [Example 167, N-[(1RS,2SR)-1-[(2,2-difluoro-1,3-benzodioxol-5-yl)methyl]-2-(4-fluorophenyl)-2-hydroxyethyl]-4-fluoronaphthalene-1-carboxamide]
